According to ChEMBL document CHEMBL5543069, “DW71177: A novel [1,2,4]triazolo[4,3-a]quinoxaline-based potent and BD1-Selective BET inhibitor for the treatment of acute myeloid leukemia” (Eur J Med Chem, 2024):

Tests used:
[1] = target: T1, Bromodomain-containing protein 4 (Homo sapiens, UniProt O60885); assay: Binding affinity to human BRD4 BD1 expressed in Escherichia coli BL21 (DE3) assessed as dissociation constant by bromodomain analysis
[2] = target: T1, Bromodomain-containing protein 4; assay: Binding affinity to human BRD4 BD2 expressed in Escherichia coli BL21 (DE3) assessed as dissociation constant by bromodomain analysis
Ty-82 = assay: Cytotoxicity against human Ty-82 cells assessed as growth inhibition incubated for 72 hrs by WST-1 assay; conditions: TY82, 72 h
MV4-11 = assay: Cytotoxicity against human MV4-11 cells assessed as growth inhibition incubated for 72 hrs by WST-1 assay; conditions: MV4-11, 72 h
[3] = Half life in rat at 5 mg/kg, po; conditions: in vivo
in vivo [4] = conditions: rat, po, 5 mg/kg
Description: Tmax in rat at 5 mg/kg, po

in vivo [5] = conditions: rat, po, 5 mg/kg; remark: listed apart in the source
Description: Cmax in rat at 5 mg/kg, po

in vivo [6] = conditions: rat, po, 5 mg/kg; remark: listed apart in the source
Description: AUC (0 to t) in rat at 5 mg/kg, po

in vivo [7] = conditions: rat, po, 5 mg/kg; remark: listed apart in the source
Description: AUC (0 to infinity) in rat at 5 mg/kg, po

[8] = target: T1, Bromodomain-containing protein 4; assay: Binding affinity to human BRD4 BD1 expressed in Escherichia coli BL21 (DE3) assessed as dissociation constant by ITC analysis
[9] = target: T1, Bromodomain-containing protein 4; assay: Binding affinity to human BRD4 BD2 expressed in Escherichia coli BL21 (DE3) assessed as dissociation constant by ITC analysis
THP-1 = assay: Antiproliferative activity against human THP-1 cells assessed as growth inhibition incubated for 72 hrs by WST-1 assay; conditions: THP-1, 72 h
MOLT-4 = assay: Antiproliferative activity against human MOLT-4 cells assessed as growth inhibition incubated for 72 hrs by WST-1 assay; conditions: MOLT-4, 72 h
K562 = assay: Antiproliferative activity against human K562 cells assessed as growth inhibition incubated for 72 hrs by WST-1 assay; conditions: K562, 72 h
Pfeiffer = assay: Antiproliferative activity against human Pfeiffer cells assessed as growth inhibition incubated for 72 hrs by WST-1 assay
SUD4 = assay: Antiproliferative activity against human SU-DHL-4 cells assessed as growth inhibition incubated for 72 hrs by WST-1 assay; conditions: SU-DHL-4, 72 h
U2932 = assay: Antiproliferative activity against human U2932 cells assessed as growth inhibition incubated for 72 hrs by WST-1 assay; conditions: U2932, 72 h
BJAB = assay: Antiproliferative activity against human BJAB cells assessed as growth inhibition incubated for 72 hrs by WST-1 assay
Daudi = assay: Antiproliferative activity against human Daudi cells assessed as growth inhibition incubated for 72 hrs by WST-1 assay
Raji = assay: Antiproliferative activity against human Raji cells assessed as growth inhibition incubated for 72 hrs by WST-1 assay
NCI-H1666 = assay: Antiproliferative activity against human NCI-H1666 cells assessed as growth inhibition incubated for 72 hrs by WST-1 assay; conditions: NCI-H1666, 72 h
NCI-H1975 = assay: Antiproliferative activity against human NCI-H1975 cells assessed as growth inhibition incubated for 72 hrs by WST-1 assay; conditions: NCI-H1975, 72 h
[10] = Antiproliferative activity against human SNU-2535 cells assessed as growth inhibition incubated for 72 hrs by WST-1 assay; conditions: SNU-2535, 72 h
LS-1034 = assay: Antiproliferative activity against human LS1034 cells assessed as growth inhibition incubated for 72 hrs by WST-1 assay; conditions: LS-1034, 72 h
T-24 = assay: Antiproliferative activity against human T24 cells assessed as growth inhibition incubated for 72 hrs by WST-1 assay; conditions: T-24, 72 h
KU-19-19 = assay: Antiproliferative activity against human KU-19-19 cells assessed as growth inhibition incubated for 72 hrs by WST-1 assay; conditions: KU-19-19, 72 h

| Compound | Kd [1] [nM] | Kd [2] [nM] | GI50 (Ty-82) [nM] | GI50 (MV4-11) [nM] | also measured |
| --- | --- | --- | --- | --- | --- |
| Cc1nnc2c(NCCCCNC(=O)OC(C)(C)C)nc3ccccc3n12 | 40 | 190 | 1000 | 980 | half-life [3]: 3.52 h; Tmax (in vivo [4]): 0.667 h; Cmax (in vivo [5]): 180 ng/mL; AUC(0-t) (in vivo [6]): 574 ng·h/mL; AUC(0-inf) (in vivo [7]): 851 ng·h/mL |
| Cc1nnc2c(NCCCCNC(=O)OC(C)(C)C)nc3cc(C(=O)O)ccc3n12 | 36 | 220 | 650 | – | – |
| Cc1nnc2c(NCCCCNC(=O)c3ccccc3)nc3ccccc3n12 | 29 | 180 | 950 | 790 | – |
| COc1ccc2c(c1)nc(NCCCCNC(=O)CC(C)C)c1nnc(C)n12 | – | – | – | – | Kd [8]: 6.7 nM; Kd [9]: 293 nM |
| Cc1sc2c(c1C)C(c1ccc(Cl)cc1)=N[C@@H](CC(=O)Nc1ccc(O)cc1)c1nnc(C)n1-2 [BIRABRESIB] | – | – | 67 | 30 | GI50 (THP-1): 40 nM; GI50 (MOLT-4): > 10000 nM; GI50 (K562): > 10000 nM; GI50 (Pfeiffer): 210 nM; GI50 (SUD4): 2800 nM; GI50 (U2932): > 10000 nM; GI50 (BJAB): 130 nM; GI50 (Daudi): 4000 nM; GI50 (Raji): > 10000 nM; GI50 (NCI-H1666): > 10000 nM; GI50 (NCI-H1975): > 10000 nM; GI50 [10]: > 10000 nM; GI50 (LS-1034): > 10000 nM; GI50 (T-24): 7900 nM; GI50 (KU-19-19): > 10000 nM |

More lines, main results first:

| Kd [1] [nM] | Kd [2] [nM] | Compound | GI50 (Ty-82) [nM] | GI50 (MV4-11) [nM] | also measured |
| --- | --- | --- | --- | --- | --- |
| 32 | 110 | Cc1nnc2c(NCCCCNC(=O)c3ccccc3Cl)nc3ccccc3n12 | 9600 | – | – |
| > 5000 | > 5000 | COc1ccc2c(c1)nc(OCCCCNC(=O)CC(C)C)c1nnc(C)n12 | > 10000 | > 10000 | – |
| > 5000 | > 5000 | Cc1nnc2c(NCCCCCCNC(=O)OC(C)(C)C)nc3ccccc3n12 | > 10000 | – | – |
